From US8450306B2, “Bradykinin B1-receptor antagonists” (Boehringer Ingelheim International GmbH, priority 2007, dated 2013) come the findings set out here.

This assay addresses T1, hBK1 receptor (Homo sapiens, UniProt P46663).
T1 construct: expressed in transfected cells; host or cells: CHO cells (membrane homogenate)
T1 sequence (P46663 1-353): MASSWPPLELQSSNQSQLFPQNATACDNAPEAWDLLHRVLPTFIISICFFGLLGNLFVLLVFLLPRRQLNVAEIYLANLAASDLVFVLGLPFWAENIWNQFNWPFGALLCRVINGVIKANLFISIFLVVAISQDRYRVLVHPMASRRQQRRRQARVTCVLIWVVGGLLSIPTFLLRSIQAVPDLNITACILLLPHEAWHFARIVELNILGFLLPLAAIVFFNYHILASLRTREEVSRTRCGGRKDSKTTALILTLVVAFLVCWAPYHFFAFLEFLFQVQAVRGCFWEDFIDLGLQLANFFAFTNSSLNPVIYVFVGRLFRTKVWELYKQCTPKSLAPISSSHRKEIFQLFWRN
In words: hBK1 receptor binding. The following applies: membranes of CHO cells expressing the hBK1 receptor; radioligand 0.5 to 1.0 nM kallidin (DesArg10, Leu9), [3,4-prolyl-3,43H(N)]; 60 minutes, room temperature. The protocol: Description of the Method of hBK1 Receptor Binding
CHO cells expressing the hBK1 receptor are cultivated in Dulbecco's modified medium. The medium from confluent cultures is removed and the cells are washed with PBS buffer, scraped off and isolated by centrifugation. The cells are then homogenized in suspension and the homogenate is centrifuged and resuspended. The protein content is determined and the membrane preparation obtained in this manner is then frozen at −80° C.
After thawing, 200 μl of the homogenate (50 to 100 μg of proteins/assay) are incubated at room temperature with 0.5 to 1.0 nM of kallidin (DesArg10, Leu9), [3,4-prolyl-3,43H(N)] and increasing concentrations of the test substance in a total volume of 250 μl for 60 minutes. The incubation is terminated by rapid filtration through GF/B glass fibre filters which had been pretreated with polyethyleneimine (0.3%). The protein-bound radioactivity is measured in a TopCount NXT. Non-specific binding is defined as radioactivity bound in the presence of 1.0 μM of kallidin (DesArg10, Leu9), [3,4-prolyl-3,43H(N)]. The concentration/binding curve is analysed using a computer-assisted nonlinear curve fitting. The K which corresponds to the test substance is determined using the data obtained in this manner. […]

As usually defined, the Ki is a dissociation constant, usually derived from enzyme kinetics or from competition with a known ligand. High values mean weaker binding, low ones tighter binding. `COc1cc(C)c(S(=O)(=O)N(C)CCOCC(=O)N(C)[C@@H]2CCN(C3CCN(C)CC3)C2)c(C)c1` [(394)] yielded a Ki of 1.04 nM.
